Laboratory results: ChEMBL document CHEMBL4828718, “Synthesis and Antifungal Activity Evaluation of Phloeodictine Analogues” (J Nat Prod, 2021)
In brackets after ≈: the same amount, converted by molar mass. Activity calls are given as the source filed them. The calls are words filed in the database; no cut-off is given here.

Tests used:
Candida albicans [1] = assay: Antifungal activity against Candida albicans ATCC 90028 assessed as fungal growth inhibition incubated for 18 to 24 hrs by alamar blue assay; assay type: functional
Pichia kudriavzevii [2] = assay: Fungicidal activity against Candida krusei ATCC 6258 assessed as fungal growth inhibition incubated for 18 to 24 hrs by alamar blue assay; assay type: functional
Aspergillus fumigatus [3] = assay: Fungicidal activity against Aspergillus fumigatus ATCC 90906 assessed as fungal growth inhibition incubated for 72 hrs by alamar blue assay; assay type: functional
Aspergillus fumigatus [4] = assay: Antifungal activity against Aspergillus fumigatus ATCC 90906 assessed as fungal growth inhibition incubated for 72 hrs by alamar blue assay; assay type: functional
Cryptococcus neoformans [5] = assay: Antifungal activity against Cryptococcus neoformans ATCC 90113 assessed as fungal growth inhibition incubated for 72 hrs by alamar blue assay; assay type: functional
Candida albicans [6] = assay: Fungicidal activity against Candida albicans ATCC 90028 assessed as fungal growth inhibition incubated for 18 to 24 hrs by alamar blue assay; assay type: functional
Cryptococcus neoformans [7] = assay: Fungicidal activity against Cryptococcus neoformans ATCC 90113 assessed as fungal growth inhibition incubated for 72 hrs by alamar blue assay; assay type: functional
Pichia kudriavzevii [8] = assay: Antifungal activity against Candida krusei ATCC 6258 assessed as fungal growth inhibition incubated for 18 to 24 hrs by alamar blue assay; assay type: functional
Vero = assay: Cytotoxicity against African green monkey Vero cells assessed as reduction in cell viability incubated for 48 hrs by neutral red dye based assay; set-up: species or system Chlorocebus sabaeus
Nakaseomyces glabratus [9] = assay: Antifungal activity against Candida glabrata ATCC 90030 assessed as fungal growth inhibition incubated for 18 to 24 hrs by alamar blue assay; assay type: functional
Nakaseomyces glabratus [10] = assay: Fungicidal activity against Candida glabrata ATCC 90030 assessed as fungal growth inhibition incubated for 18 to 24 hrs by alamar blue assay; assay type: functional
[11] = Candida albicans, ATCC 90028, time 18-24 hrs, read-out: MIC
[12] = Pichia kudriavzevii, ATCC 6258, time 18-24 hrs, read-out: MFC
[13] = Aspergillus fumigatus, ATCC 90906, 72 h, read-out: MFC
[14] = Aspergillus fumigatus, ATCC 90906, 72 h, read-out: MIC
[15] = Cryptococcus neoformans, ATCC 90113, 72 h, read-out: MIC
[16] = Candida albicans, ATCC 90028, time 18-24 hrs, read-out: MFC
[17] = Cryptococcus neoformans, ATCC 90113, 72 h, read-out: MFC
[18] = Pichia kudriavzevii, ATCC 6258, time 18-24 hrs, read-out: MIC
[19] = Chlorocebus sabaeus, Vero, 48 h
[20] = Nakaseomyces glabratus, ATCC 90030, time 18-24 hrs, read-out: MIC
[21] = Nakaseomyces glabratus, ATCC 90030, time 18-24 hrs, read-out: MFC

Row | Structure (SMILES) | MIC (Candida albicans [1]; [11]) [µM] | MFC (Pichia kudriavzevii [2]; [12]) [µM] | MFC (Aspergillus fumigatus [3]; [13]) [µM] | MIC (Aspergillus fumigatus [4]; [14]) [µM] | MIC (Cryptococcus neoformans [5]; [15]) [µM] | MFC (Candida albicans [6]; [16]) [µM] | MFC (Cryptococcus neoformans [7]; [17]) [µM] | MIC (Pichia kudriavzevii [8]; [18]) [µM] | IC50 (Vero; [19]) [µM] | MIC (Nakaseomyces glabratus [9]; [20]) [µM] | MFC (Nakaseomyces glabratus [10]; [21]) [µM] | also measured
1 | CCCCCCCCCCCCCCC1(O)C(C)=C(C)C2=[N+](Cc3cc(OC)c(OC)c(OC)c3)CCCN21 (stereo not drawn) | 5.3 | 1.9 | 4 | 4 | 1.6 | 5.3 | 1.6 | 1.9 | > 40 | 4 | 4 | –
2 | CCCCCCCCCCCCCCC1(O)C(C)=C(C)C2=[N+](CC(=O)NCCOCCOCCOCCNC(=O)CCCC[C@@H]3SC[C@@H]4NC(=O)N[C@@H]43)CCCN21 (stereo partly drawn) | – | – | – | – | 3.7 | – | 4.5 | – | > 28 | – | – | MIC (Candida albicans [1]; time 18-24 hrs): inactive; MFC (Pichia kudriavzevii [2]; time 18-24 hrs): inactive; MFC (Aspergillus fumigatus [3]): inactive; MIC (Aspergillus fumigatus [4]): inactive; MFC (Candida albicans [6]; time 18-24 hrs): inactive; MIC (Pichia kudriavzevii [8]; time 18-24 hrs): inactive; MIC (Nakaseomyces glabratus [9]; time 18-24 hrs): inactive; MFC (Nakaseomyces glabratus [10]; time 18-24 hrs): inactive
3 | CCCCCCCCCCCCCCC1(O)C(C)=C(C)C2=[N+](Cc3ccccc3)CCCN21 (stereo not drawn) | 3.9 | 2.2 | 4.7 | 4.7 | 1.5 | 3.9 | 1.5 | 2.2 | 25 | 2.2 | 2.2 | –
4 | CCCCCCCCCCCCCCC1(O)C(C)=C(C)C2=[N+](CC(=O)c3cccs3)CCCN21 (stereo not drawn) | 7.4 | 5.1 | 8.8 | 8.8 | 12 | 7.4 | 12 | 5.1 | 27 | 5.1 | 5.1 | –
5 | CCCCCCCCCCCCCCC1(O)C(C)=C(C)C2=[N+](Cc3cccc(OC)c3)CCCN21 (stereo not drawn) | 3 | 3 | 3 | 3 | 1.1 | 3 | 1.1 | 2.1 | 24 | 2.1 | 2.1 | –
6 | CCCCCCCCCCCCCCc1c(C)c(C)cn1CCCN | 24 (≈ 8.37 µg/mL) | 12 (≈ 4.18 µg/mL) | 19 (≈ 6.62 µg/mL) | 19 (≈ 6.62 µg/mL) | 2.9 (≈ 1.01 µg/mL) | 24 (≈ 8.37 µg/mL) | 2.9 (≈ 1.01 µg/mL) | 12 (≈ 4.18 µg/mL) | 44 | 11 (≈ 3.83 µg/mL) | 12 (≈ 4.18 µg/mL) | –
7 | C[C@@H]1[C@H](O)[C@@H](C)/C=C/C=C/C=C/C=C/C=C/C=C/C=C/[C@H](O[C@@H]2O[C@H](C)[C@@H](O)[C@H](N)[C@@H]2O)C[C@@H]2O[C@](O)(C[C@@H](O)C[C@@H](O)[C@H](O)CC[C@@H](O)C[C@@H](O)CC(=O)O[C@H]1C)C[C@H](O)[C@H]2C(=O)O [AMPHOTERICIN B] | 0.77 (≈ 0.712 µg/mL) | 1.3 (≈ 1.2 µg/mL) | 4 (≈ 3.7 µg/mL) | 2.3 (≈ 2.13 µg/mL) | 0.65 (≈ 0.601 µg/mL) | 0.97 (≈ 0.896 µg/mL) | 0.65 (≈ 0.601 µg/mL) | 1.3 (≈ 1.2 µg/mL) | 6.8 | 0.65 (≈ 0.601 µg/mL) | 0.65 (≈ 0.601 µg/mL) | –
8 | CCCCCCCCCCCCCCC1(O)C(C)=C(C)C2=[N+](CC(=O)NCCCNC(=O)OC(C)(C)C)CCCN21 (stereo not drawn) | 14 | 5 | 15 | 10 | 3.8 | 14 | 3.8 | 5 | > 38 | 7.6 | 14 | –
9 | CCCCCCCCCCCCCCC1(O)C(C)=C(C)C2=[N+](C/C=C/c3ccccc3)CCCN21 (stereo not drawn) | 3.8 | 3.8 | 5.9 | 4.5 | 1.4 | 3.8 | 4.1 | 3 | 38 | 2.7 | 4.1 | –
10 | CCCCCCCCCCCCCCC1(O)C(C)=C(C)C2=[N+](Cc3ccc(F)cc3F)CCCN21 (stereo not drawn) | 3.7 | 1.8 | 3.7 | 3 | 0.88 | 3.7 | 1.1 | 1.8 | 28 | 1.8 | 1.8 | –
11 | CCCCCCCCCCCCCCC1(O)C(C)=C(C)C2=[N+](Cc3ccc(F)cc3)CCCN21 (stereo not drawn) | 6.7 | 2.2 | 3.1 | 3.1 | 1.5 | 6.7 | 1.5 | 2.2 | 33 | 2.2 | 2.2 | –
12 | CCCCCCCCCCCCCCc1c(C)c(C)cn1CCCNCc1ccccc1 | – | – | – | – | – | – | – | – | 42 | – | – | MIC (Candida albicans [1]; time 18-24 hrs): inactive; MFC (Pichia kudriavzevii [2]; time 18-24 hrs): inactive; MFC (Aspergillus fumigatus [3]): inactive; MIC (Aspergillus fumigatus [4]): inactive; MIC (Cryptococcus neoformans [5]): inactive; MFC (Candida albicans [6]; time 18-24 hrs): inactive; MFC (Cryptococcus neoformans [7]): inactive; MIC (Pichia kudriavzevii [8]; time 18-24 hrs): inactive; MIC (Nakaseomyces glabratus [9]; time 18-24 hrs): inactive; MFC (Nakaseomyces glabratus [10]; time 18-24 hrs): inactive
13 | CCCCCCCCCCCCCCC1(O)C(C)=C(C)C2=[N+](C)c3ccccc3CN21 (stereo not drawn) | – | – | – | – | 2.4 | – | 2.4 | – | > 45 | – | – | MIC (Candida albicans [1]; time 18-24 hrs): inactive; MFC (Pichia kudriavzevii [2]; time 18-24 hrs): inactive; MFC (Aspergillus fumigatus [3]): inactive; MIC (Aspergillus fumigatus [4]): inactive; MFC (Candida albicans [6]; time 18-24 hrs): inactive; MIC (Pichia kudriavzevii [8]; time 18-24 hrs): inactive; MIC (Nakaseomyces glabratus [9]; time 18-24 hrs): inactive; MFC (Nakaseomyces glabratus [10]; time 18-24 hrs): inactive
14 | CCCCCCCCCCCCCCC1(O)C(C)=C(C)C2=[N+](Cc3cccc(C(F)(F)F)c3)CCCN21 (stereo not drawn) | 4.2 | 2.8 | 6.3 | 4.2 | 1.3 | 4.2 | 1.7 | 2.8 | 27 | 2 | 2 | –
15 | CCCCCCCCCCCCCCC1(O)C(C)=C(C)C2=[N+](Cc3ccc(C(F)(F)F)cc3)CCCN21 (stereo not drawn) | 5.5 | 2 | 19 | 17 | 1 | 7 | 3.5 | 2 | > 42 | 2 | 2 | –
16 | C#CC[N+]1=C2C(C)=C(C)C(O)(CCCCCCCCCCCCCC)N2CCC1 (stereo not drawn) | 5.2 | 2.1 | 5.2 | 5.2 | 1.5 | 5.2 | 2.3 | 2.1 | 35 | 5.2 | 5.2 | –
17 | CCCCCCCCCCCCCCC1(O)C(C)=C(C)C2=[N+](CC(=O)NCCCN)CCCN21 (stereo not drawn) | 12 | 12 | 30 | 20 | 3.8 | 18 | 3.8 | 7.5 | > 45 | 12 | 15 | –
18 | CCCCCCCCCCCCCCC1(O)C(C)=C(C)C2=[N+](Cc3ccccc3)CCCN21.[Cl-] (stereo not drawn) | – | – | – | – | – | – | – | – | – | – | – | MIC (Candida albicans [1]; time 18-24 hrs): 6.7 µM; MFC (Pichia kudriavzevii [2]; time 18-24 hrs): 4.3 µM; MFC (Aspergillus fumigatus [3]): 5.9 µM; MIC (Aspergillus fumigatus [4]): 5.9 µM; MIC (Cryptococcus neoformans [5]): 2 µM; MFC (Candida albicans [6]; time 18-24 hrs): 6.7 µM; MFC (Cryptococcus neoformans [7]): 2 µM; MIC (Pichia kudriavzevii [8]; time 18-24 hrs): 4.3 µM; IC50 (Vero; vero): 36 µM; MIC (Nakaseomyces glabratus [9]; time 18-24 hrs): 4.3 µM; MFC (Nakaseomyces glabratus [10]; time 18-24 hrs): 4.3 µM
19 | CCCCCCCCCCCCCCC1(O)C(C)=C(C)C2=[N+](CC(=O)c3cccc(Cl)c3)CCCN21 (stereo not drawn) | 18 | 6.2 | – | – | 3.7 | 18 | 3.7 | 6.2 | 7.7 | 4.9 | 4.9 | MFC (Aspergillus fumigatus [3]): inactive; MIC (Aspergillus fumigatus [4]): inactive
20 | CCCCCCCCCCCCCCC1(O)C(C)=C(C)C2=[N+](CC#N)CCCN21 (stereo not drawn) | 10 | 4.4 | 6 | 6 | 1 | 10 | 1 | 3.5 | > 52 | 6 | 8.7 | –
21 | CCCCCCCCCCCCCCC1(O)C=CC2=[N+](C)CCCN21 (stereo not drawn) | 5.2 | 2.1 | 4.4 | 4.4 | 0.21 | 5.2 | 0.21 | 2.1 | 17 | 1.7 | 1.7 | –
22 | CCCCCCCCCCCCCCc1c(C)c(C)cn1CCCNC | 12 (≈ 4.35 µg/mL) | 6.9 (≈ 2.5 µg/mL) | 23 (≈ 8.34 µg/mL) | 21 (≈ 7.62 µg/mL) | 3.3 (≈ 1.2 µg/mL) | 12 (≈ 4.35 µg/mL) | 6.9 (≈ 2.5 µg/mL) | 6.9 (≈ 2.5 µg/mL) | 35 | 6.9 (≈ 2.5 µg/mL) | 6.9 (≈ 2.5 µg/mL) | –
23 | CCCCCCCCCCCCCCC1(O)C(C)=C(C)C2=[N+](CC(=O)OCC)CCCN21 (stereo not drawn) | 9.4 | 5.5 | 9.4 | 9.4 | 1.9 | 17 | 2.8 | 5.5 | 44 | 6.2 | 11 | –
